From patent US20240239752A1, “BICYCLIC HETEROAROMATIC INHIBITORS OF KLK5” (BioCryst Pharmaceuticals, Inc., priority 2021, published 2024)

Target: T1, recombinant human KLK5 (Homo sapiens, UniProt Q9Y337)
T1 construct: purchased Novoprotein or R&D Systems C415 or 1108-SE
T1 sequence (Q9Y337 23-293): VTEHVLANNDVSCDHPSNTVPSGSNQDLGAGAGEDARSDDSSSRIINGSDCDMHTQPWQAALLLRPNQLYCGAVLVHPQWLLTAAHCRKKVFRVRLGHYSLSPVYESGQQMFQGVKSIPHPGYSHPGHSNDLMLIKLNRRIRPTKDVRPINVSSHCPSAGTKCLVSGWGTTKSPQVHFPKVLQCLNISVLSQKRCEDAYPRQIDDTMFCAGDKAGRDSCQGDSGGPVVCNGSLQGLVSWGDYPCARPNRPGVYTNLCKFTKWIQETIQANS
Assay: Kallikrein (KLK) 5 enzymatic assay (Boc-VPR-AMC fluorogenic substrate)
Type: biochemical
Details: recombinant human KLK5 0.1 μg/well, Boc-VPR-AMC 100 μM, pH 7.5, room temperature, 1% DMSO; tested a minimum of three times
How it was run: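 Recombinant human KLK5 (0.1 μg/well) was preincubated with compound at room temperature in 0.1 M NaH2PO4, pH 7.5, 1% DMSO, then started with 100 μM Boc-VPR-AMC. The rate was followed at 380/460 nm, and IC50 came from percent inhibition relative to enzyme alone, with at least three runs.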

SMILES | IC50 [µM]
Nc1nccc2ccc(-c3ccc4c(c3)c(COc3ccccc3CC(=O)O)nn4C3CC3)cc12 [Compound 60b, 2-(2-((5-(1-aminoisoquinolin-7-yl)-1-cyclopropyl-1H-indazol-3-yl)methoxy)phenyl)acetic acid] | < 1
Nc1nccc2ccc(-c3ccc4c(c3)c(COc3ccccc3CC(=O)O)nn4C3CCCCC3)cc12 [Compound 48d, 2-(2-((5-(1-aminoisoquinolin-7-yl)-1-cyclohexyl-1H-indazol-3-yl)methoxy)phenyl)acetic acid] | < 1
Cc1cccc(OCc2nn(C3CCC3)c3ccc(-c4ccc5ccnc(N)c5c4)cc23)c1CC(=O)O [Compound 161c, 2-(2-((5-(1-aminoisoquinolin-7-yl)-1-cyclobutyl-1H-indazol-3-yl)methoxy)-6-methylphenyl)acetic acid] | < 1
Nc1nccc2ccc(-c3ccc4nn([C@H]5CCN(CCO)C5)c(COc5ccccc5CC(=O)O)c4c3)cc12 [Compound 113h, (S)-2-(2-((5-(1-aminoisoquinolin-7-yl)-2-(1-(2-hydroxyethyl)pyrrolidin-3-yl)-2H-indazol-3-yl)methoxy)phenyl)acetic acid] | 1 to 10
CC(C)n1nc(COc2ccccc2CC(=O)O)c2cc(-c3cnc4[nH]nc(N)c4c3)ccc21 [Compound 68c, 2-(2-((5-(3-amino-1H-pyrazolo[3,4-b]pyridin-5-yl)-1-isopropyl-1H-indazol-3-yl)methoxy)phenyl)acetic acid] | > 10
Cn1nc(COc2ccccc2CC(=O)O)c2cc(-c3ccc4ccnc(N)c4c3)ccc21 [Compound 57b, 2-(2-((5-(1-aminoisoquinolin-7-yl)-1-methyl-1H-indazol-3-yl)methoxy)phenyl)acetic acid] | < 1
CC(C)n1nc(COc2ccccc2CC(=O)O)c2cc(-c3ccc4nc(N)oc4c3)ccc21 [Compound 105c, 2-(2-((5-(2-aminobenzo[d]oxazol-6-yl)-1-isopropyl-1H-indazol-3-yl)methoxy)phenyl)acetic acid] | > 10
CC(C)n1nc(COc2ccccc2CC(=O)O)c2cc(-c3ccnc4c(N)nccc34)ccc21 [Compound 80d, 2-(2-((5-(8-amino-1,7-naphthyridin-4-yl)-1-isopropyl-1H-indazol-3-yl)methoxy)phenyl)acetic acid] | 1 to 10
COCCN1CC(n2nc(COc3ccccc3CC(=O)O)c3cc(-c4cccc5c(N)nccc45)ccc32)C1 [Compound 143d, 2-(2-((5-(1-aminoisoquinolin-5-yl)-1-(1-(2-methoxyethyl)azetidin-3-yl)-1H-indazol-3-yl)methoxy)phenyl)acetic acid] | < 1
COc1c(-c2ccc3nn(C4CCC4)c(COc4ccccc4CC(=O)O)c3c2)ccnc1C(=N)NO [Compound 23g, 2-(2-((2-cyclobutyl-5-(2-(N-hydroxycarbamimidoyl)-3-methoxypyridin-4-yl)-2H-indazol-3-yl)methoxy)phenyl)acetic acid] | 1 to 10
CC(C)n1nc(COc2ccccc2CC(=O)O)c2cc(-c3ccc4c(c3)C(N)CCO4)ccc21 (centres unmarked) [Compound 214c, 2-(2-((5-(4-aminochroman-6-yl)-1-isopropyl-1H-indazol-3-yl)methoxy)phenyl)acetic acid] | > 10
Nc1nccc2c(-c3ccc4c(c3)c(COc3cc(F)ccc3CC(=O)O)nn4C3CCC3)cccc12 [Compound 168c, 2-(2-((5-(1-aminoisoquinolin-5-yl)-1-cyclobutyl-1H-indazol-3-yl)methoxy)-4-fluorophenyl)acetic acid] | < 1
Nc1nccc2c(-c3ccc4nn(C5CCOC5)c(COc5ccccc5CC(=O)O)c4c3)cccc12 (centres unmarked) [Compound 8g, 2-(2-((5-(1-aminoisoquinolin-5-yl)-2-(tetrahydrofuran-3-yl)-2H-indazol-3-yl)methoxy)phenyl)acetic acid] | < 1
CC(C)n1nc(COc2ccccc2CC(=O)O)c2cc(-c3cccc(-c4cn[nH]c4)c3)ccc21 [Compound 85c, 2-(2-((5-(3-(1H-pyrazol-4-yl)phenyl)-1-isopropyl-1H-indazol-3-yl)methoxy)phenyl)acetic acid] | > 10
COc1ccc(CC(=O)O)c(OCc2nn(C(C)C)c3ccc(-c4cccc(C(=N)N)c4)cc23)c1 [Compound 5e, 2-(2-((5-(3-carbamimidoylphenyl)-1-isopropyl-1H-indazol-3-yl)methoxy)-4-methoxyphenyl)acetic acid] | < 1
CC(C)(C)OC(=O)N1CCC2(CC1)CC(Oc1ccccc1CC(=O)O)c1cc(-c3ccc4ccnc(N)c4c3)ccc12 (centres unmarked) [Compound 348b, 2-(2-((5-(1-aminoisoquinolin-7-yl)-1′-(tert-butoxycarbonyl)-2,3-dihydrospiro[indene-1,4′-piperidin]-3-yl)oxy)phenyl)acetic acid] | < 1
Cc1cccc(CC(=O)O)c1OCc1nn(C2CCC2)c2ccc(-c3ccc4ccnc(N)c4c3)cc12 [Compound 159g, 2-(2-((5-(1-aminoisoquinolin-7-yl)-1-cyclobutyl-1H-indazol-3-yl)methoxy)-3-methylphenyl)acetic acid] | 1 to 10
CC(C)n1nc(COc2ccccc2CC(=O)O)c2cc(-c3ccc4onc(N)c4c3)ccc21 [Compound 102c, 2-(2-((5-(3-aminobenzo[d]isoxazol-5-yl)-1-isopropyl-1H-indazol-3-yl)methoxy)phenyl)acetic acid] | 1 to 10
CC(C)CCN1CC(n2nc(COc3ccccc3CC(=O)O)c3cc(-c4ccc5ccnc(N)c5c4)ccc32)C1 [Compound 146b, 2-(2-((5-(1-aminoisoquinolin-7-yl)-1-(1-isopentylazetidin-3-yl)-1H-indazol-3-yl)methoxy)phenyl)acetic acid] | < 1

Other lines, results leading:

IC50 [µM] | SMILES
< 1 | Nc1nccc2ccc(-c3ccc4c(c3)c(COc3ccccc3CC(=O)O)nn4CC3CNC3)cc12 [Compound 295c, 2-(2-((5-(1-aminoisoquinolin-7-yl)-1-(azetidin-3-ylmethyl)-1H-indazol-3-yl)methoxy)phenyl)acetic acid]
< 1 | Nc1nccc2ccc(-c3ccc4c(c3)[C@H](Oc3cc(C(F)(F)F)ccc3CC(=O)O)CC4)cc12 [Compound 427c, (R)-2-(2-((6-(1-aminoisoquinolin-7-yl)-2,3-dihydro-1H-inden-1-yl)oxy)-4-(trifluoromethyl)phenyl)acetic acid]
< 1 | Cc1cccc(OC2CC3(CCCC3)c3ccc(-c4ccc5ccnc(N)c5c4)cc32)c1CC(=O)O (centres unmarked) [Compound 367b, 2-(2-((5′-(1-aminoisoquinolin-7-yl)-2′,3′-dihydrospiro[cyclopentane-1,1′-inden]-3′-yl)oxy)-6-methylphenyl)acetic acid]
1 to 10 | Nc1nccc2c(-c3ccc4c(c3)N(Cc3ccccc3CC(=O)O)CC4)cccc12 [Compound 285d, 2-(2-((6-(1-aminoisoquinolin-5-yl)indolin-1-yl)methyl)phenyl)acetic acid]
< 1 | Nc1nccc2ccc(-c3ccc4c(c3)c(COc3ccccc3CC(=O)O)nn4CC3CCC3)cc12 [Compound 253b, 2-(2-((5-(1-aminoisoquinolin-7-yl)-1-(cyclobutylmethyl)-1H-indazol-3-yl)methoxy)phenyl)acetic acid]
< 1 | CC1(C)Cc2ccc(-c3cccc4c(N)nccc34)cc2C1Oc1cc(F)ccc1CC(=O)O (centres unmarked) [Compound 438c, 2-(2-((6-(1-aminoisoquinolin-5-yl)-2,2-dimethyl-2,3-dihydro-1H-inden-1-yl)oxy)-4-fluorophenyl)acetic acid]
< 1 | CC(C)n1nc(COc2ccccc2CC(=O)O)c2cc(-c3cccc(C(=N)N)c3O)ccc21 [Compound 262e, 2-(2-((5-(3-carbamimidoyl-2-hydroxyphenyl)-1-isopropyl-1H-indazol-3-yl)methoxy)phenyl)acetic acid]
1 to 10 | Nc1nccc2ccc(-c3cc4c(COc5ccccc5CC(=O)O)cccc4o3)cc12 [Compound 231f, 2-(2-((2-(1-aminoisoquinolin-7-yl)benzofuran-4-yl)methoxy)phenyl)acetic acid]
< 1 | Nc1nccc2ccc(-c3ccc4c(c3)c(COc3ccccc3CC(=O)O)nn4C3CCCOC3)cc12 (centres unmarked) [Compound 283g, 2-(2-((5-(1-aminoisoquinolin-7-yl)-1-(tetrahydro-2H-pyran-3-yl)-1H-indazol-3-yl)methoxy)phenyl)acetic acid]
< 1 | Cc1cccc(OCc2nn(C3CCOC3)c3ccc(-c4cccc5c(N)nccc45)cc23)c1CC(=O)O (centres unmarked) [Compound 247c, 2-(2-((5-(1-aminoisoquinolin-5-yl)-1-(tetrahydrofuran-3-yl)-1H-indazol-3-yl)methoxy)-6-methylphenyl)acetic acid]
< 1 | Cc1cccc(OC2CC3(CCOCC3)c3ccc(-c4cccc5c(N)nccc45)cc32)c1CC(=O)O (centres unmarked) [Compound 353b, 2-(2-((5-(1-aminoisoquinolin-5-yl)-2,2′,3,3′,5′,6′-hexahydrospiro[indene-1,4′-pyran]-3-yl)oxy)-6-methylphenyl)acetic acid]
< 1 | COC(=O)N1CCC2(CC1)CC(Oc1cc(OC)ccc1CC(=O)O)c1cc(-c3cccc4c(N)nccc34)ccc12 (centres unmarked) [Compound 453b, 2-(2-((5-(1-aminoisoquinolin-5-yl)-1′-(methoxycarbonyl)-2,3-dihydrospiro[indene-1,4′-piperidin]-3-yl)oxy)-4-methoxyphenyl)acetic acid]
> 10 | Nc1nccc2c(-c3cc4c(COc5ccccc5CC(=O)O)cccc4o3)cccc12 [Compound 232b, 2-(2-((2-(1-aminoisoquinolin-5-yl)benzofuran-4-yl)methoxy)phenyl)acetic acid]
